Assay results reported in ChEMBL document CHEMBL4041467, “Synthesis of novel 15-membered 8a-azahomoerythromycin A acylides: Consequences of structural modification at the C-3 and C-6 position on antibacterial activity” (Eur J Med Chem, 2017).
Converted amounts (≈) assume the structure as drawn.

How the values were obtained:
[1] = system: Streptococcus pyogenes; assay: Antibacterial activity against Mef-mediated macrolide efflux resistant Streptococcus pyogenes by agar microdilution method; assay type: functional
[2] = system: Plasma; assay: Stability in rat plasma at 1 uM up to 120 mins by LC-MS/MS analysis; assay type: ADME, cell-free; conditions: 2 h
[3] = system: Staphylococcus aureus; assay: Antibacterial activity against constitutively macrolide/lincosamide/streptogramin B-resistant Staphylococcus aureus by agar microdilution method; assay type: functional
[4] = system: Streptococcus pyogenes; assay: Antibacterial activity against erythromycin susceptible Streptococcus pyogenes by agar microdilution method; assay type: functional
[5] = system: Staphylococcus aureus; assay: Antibacterial activity against inducibly macrolide/lincosamide/streptogramin B-resistant Staphylococcus aureus by agar microdilution method; assay type: functional
[6] = system: Haemophilus influenzae; assay: Antibacterial activity against Haemophilus influenzae by agar microdilution method; assay type: functional
[7] = system: Staphylococcus aureus; assay: Antibacterial activity against erythromycin susceptible Staphylococcus aureus by agar microdilution method; assay type: functional
[8] = system: Streptococcus pneumoniae; assay: Antibacterial activity against erythromycin susceptible Streptococcus pneumoniae by agar microdilution method; assay type: functional
[9] = system: Streptococcus pneumoniae; assay: Antibacterial activity against constitutively macrolide/lincosamide/streptogramin B-resistant Streptococcus pneumoniae by agar microdilution method; assay type: functional
[10] = system: Streptococcus pneumoniae; assay: Antibacterial activity against Mef-mediated macrolide efflux resistant Streptococcus pneumoniae by agar microdilution method; assay type: functional
[11] = system: Streptococcus pyogenes; assay: Antibacterial activity against constitutively macrolide/lincosamide/streptogramin B-resistant Streptococcus pyogenes by agar microdilution method; assay type: functional
[12] = system: Staphylococcus aureus; assay: Antibacterial activity against erythromycin susceptible Staphylococcus aureus infected in mouse assessed as increase in mouse survival administered orally 1 hr post infection; assay type: functional; conditions: po
[13] = system: Streptococcus pneumoniae; assay: Antibacterial activity against erythromycin susceptible Streptococcus pneumoniae infected in mouse assessed as increase in mouse survival administered orally 1 hr post infection; assay type: functional; conditions: po
[14] = system: Staphylococcus aureus; assay: Potency index, ratio of clarithromycin ED50 to compound ED50 for erythromycin susceptible Staphylococcus aureus infected in mouse; assay type: functional
[15] = system: Streptococcus pneumoniae; assay: Potency index, ratio of clarithromycin ED50 to compound ED50 for erythromycin susceptible Streptococcus pneumoniae infected in mouse; assay type: functional
[16] = Metabolic stability in mouse liver microsomes assessed as parent compound remaining at 1 uM after 60 mins in presence of NADP by LC-MS/MS analysis; assay type: ADME, microsome; conditions: read-out: Stability
[17] = Metabolic stability in rat liver microsomes assessed as parent compound remaining at 1 uM after 60 mins in presence of NADP by LC-MS/MS analysis; assay type: ADME, microsome; conditions: read-out: Stability
[18] = Metabolic stability in human liver microsomes assessed as parent compound remaining at 1 uM after 60 mins in presence of NADP by LC-MS/MS analysis; assay type: ADME, microsome; conditions: read-out: Stability

For `C=CCO[C@]1(C)C[C@@H](C)NC(=O)[C@H](C)[C@@H](O)[C@](C)(O)[C@@H](CC)OC(=O)[C@H](C)[C@@H](OC(=O)CCN2CCN(c3cc4c(cc3F)c(=O)c(C(=O)O)cn4C3CC3)CC2)[C@H](C)[C@H]1O[C@@H]1O[C@H](C)C[C@H](N(C)C)[C@H]1O`, the MIC [1] was 0.5 µg/mL (≈ 0.492 µM), the Stability [2] was “Stable” and the MIC [3] was over 64 µg/mL. The MIC [4] was 0.5 µg/mL (≈ 0.492 µM), the MIC [5] was 1 µg/mL (≈ 0.984 µM) and the MIC [6] was 4 µg/mL (≈ 3.94 µM). For the same compound, the MIC [7] was 0.5 µg/mL (≈ 0.492 µM), the MIC [8] was 0.5 µg/mL (≈ 0.492 µM) and the MIC [9] was 4 µg/mL (≈ 3.94 µM). The MIC [10] was 1 µg/mL (≈ 0.984 µM) and the MIC [11] was 8 µg/mL (≈ 7.87 µM).
Compound `CC[C@H]1OC(=O)[C@H](C)[C@@H](OC(=O)CCNCCNc2cc3c(=O)c(C(=O)O)cn(C4CC4)c3cc2Cl)[C@H](C)[C@@H](O[C@@H]2O[C@H](C)C[C@H](N(C)C)[C@H]2O)[C@](C)(OC/C=C/c2cccc3ncccc23)C[C@@H](C)NC(=O)[C@H](C)[C@@H](O)[C@]1(C)O` has an MIC [1] of 4 µg/mL (≈ 3.53 µM), an MIC [3] of over 64 µg/mL and an MIC [4] of 1 µg/mL (≈ 0.882 µM). It also gave an MIC [5] of 2 µg/mL (≈ 1.76 µM), an MIC [6] of 8 µg/mL (≈ 7.06 µM) and an MIC [7] of 1 µg/mL (≈ 0.882 µM). For the same compound, the MIC [8] was 0.5 µg/mL (≈ 0.441 µM), the MIC [9] was 8 µg/mL (≈ 7.06 µM) and the MIC [10] was 4 µg/mL (≈ 3.53 µM). For the same compound, the MIC [11] was 32 µg/mL (≈ 28.2 µM).
Compound `C=CCO[C@]1(C)C[C@@H](C)NC(=O)[C@H](C)[C@@H](O)[C@](C)(O)[C@@H](CC)OC(=O)[C@H](C)[C@@H](OC(=O)CCNCCNc2cc3c(cc2F)c(=O)c(C(=O)O)cn3C2CC2)[C@H](C)[C@H]1O[C@@H]1O[C@H](C)C[C@H](N(C)C)[C@H]1O` has an MIC [1] of 0.5 µg/mL (≈ 0.505 µM), an MIC [3] of over 64 µg/mL and an MIC [4] of 0.25 µg/mL (≈ 0.252 µM). For the same compound, the MIC [5] was 0.25 µg/mL (≈ 0.252 µM), the MIC [6] was 2 µg/mL (≈ 2.02 µM) and the MIC [7] was 0.25 µg/mL (≈ 0.252 µM). For the same compound, the MIC [8] was 0.25 µg/mL (≈ 0.252 µM), the MIC [9] was 2 µg/mL (≈ 2.02 µM) and the MIC [10] was 0.5 µg/mL (≈ 0.505 µM). The MIC [11] was 16 µg/mL (≈ 16.2 µM).
`C=CCO[C@]1(C)C[C@@H](C)NC(=O)[C@H](C)[C@@H](O)[C@](C)(O)[C@@H](CC)OC(=O)[C@H](C)[C@@H](OC(=O)CCNC(C)C(=O)Nc2ccc3ncccc3c2)[C@H](C)[C@H]1O[C@@H]1O[C@H](C)C[C@H](N(C)C)[C@H]1O` (some centres not stated) gave an MIC [1] of 0.25 µg/mL (≈ 0.278 µM), an MIC [3] of over 64 µg/mL and an MIC [4] of at most 0.125 µg/mL. The MIC [5] was 0.5 µg/mL (≈ 0.555 µM), the MIC [6] was 4 µg/mL (≈ 4.44 µM) and the MIC [7] was 0.5 µg/mL (≈ 0.555 µM). The MIC [8] was at most 0.125 µg/mL, the MIC [9] was 8 µg/mL (≈ 8.89 µM) and the MIC [10] was 0.25 µg/mL (≈ 0.278 µM). For the same compound, the MIC [11] was 4 µg/mL (≈ 4.44 µM).
In the case of `C=CCO[C@]1(C)C[C@@H](C)NC(=O)[C@H](C)[C@@H](O)[C@](C)(O)[C@@H](CC)OC(=O)[C@H](C)[C@@H](OC(=O)CCN2CCN(c3cc4c(cc3F)c(=O)c(C(=O)OC)cn4C3CC3)CC2)[C@H](C)[C@H]1O[C@@H]1O[C@H](C)C[C@H](N(C)C)[C@H]1O`, the MIC [1] is reported as 8 µg/mL (≈ 7.77 µM), the MIC [3] is reported as over 64 µg/mL and the MIC [4] is reported as 2 µg/mL (≈ 1.94 µM). For the same compound, the MIC [5] was 4 µg/mL (≈ 3.88 µM), the MIC [6] was 8 µg/mL (≈ 7.77 µM) and the MIC [7] was 2 µg/mL (≈ 1.94 µM). The MIC [8] was 2 µg/mL (≈ 1.94 µM), the MIC [9] was 8 µg/mL (≈ 7.77 µM) and the MIC [10] was 4 µg/mL (≈ 3.88 µM). It also gave an MIC [11] of 32 µg/mL (≈ 31.1 µM).
`CC[C@H]1OC(=O)[C@H](C)[C@@H](OC(=O)CCNCCNc2cc3c(=O)c(C(=O)O)cn(C4CC4)c3cc2Cl)[C@H](C)[C@@H](O[C@@H]2O[C@H](C)C[C@H](N(C)C)[C@H]2O)[C@](C)(OC/C=C/c2ccc3ncccc3c2)C[C@@H](C)NC(=O)[C@H](C)[C@@H](O)[C@]1(C)O` showed an ED50 [12] of 12.8 mg/kg, an MIC [1] of 0.25 µg/mL (≈ 0.221 µM) and an ED50 [13] of 15.1 mg/kg. For the same compound, the MIC [3] was over 64 µg/mL, the MIC [4] was at most 0.125 µg/mL and the MIC [5] was 0.25 µg/mL (≈ 0.221 µM). The “Ratio ED50” value [14] was 2, the MIC [6] was 4 µg/mL (≈ 3.53 µM) and the MIC [7] was 0.25 µg/mL (≈ 0.221 µM). For the same compound, the MIC [8] was at most 0.125 µg/mL, the “Ratio ED50” value [15] was 2 and the MIC [10] was 0.25 µg/mL (≈ 0.221 µM). The MIC [11] was 4 µg/mL (≈ 3.53 µM).
`CC[C@H]1OC(=O)[C@H](C)[C@@H](OC(=O)CCNCCNc2cc3c(=O)c(C(=O)O)cn(C4CC4)c3cc2Cl)[C@H](C)[C@@H](O[C@@H]2O[C@H](C)C[C@H](N(C)C)[C@H]2O)[C@](C)(OC/C=C/c2ccnc3ccccc23)C[C@@H](C)NC(=O)[C@H](C)[C@@H](O)[C@]1(C)O` showed an MIC [1] of 4 µg/mL (≈ 3.53 µM), an MIC [3] of over 64 µg/mL and an MIC [4] of 0.5 µg/mL (≈ 0.441 µM). It also gave an MIC [5] of 0.5 µg/mL (≈ 0.441 µM), an MIC [6] of 16 µg/mL (≈ 14.1 µM) and an MIC [7] of 0.5 µg/mL (≈ 0.441 µM). For the same compound, the MIC [8] was 0.25 µg/mL (≈ 0.221 µM), the MIC [9] was 4 µg/mL (≈ 3.53 µM) and the MIC [10] was 1 µg/mL (≈ 0.882 µM). It also gave an MIC [11] of 32 µg/mL (≈ 28.2 µM).
For `CCOc1ccc2ccc(=O)oc2c1` [ETHOXYCOUMARIN], the remaining at 1 h, 1 µM [16] was 30%, the remaining at 1 h, 1 µM [17] was 57% and the remaining at 1 h, 1 µM [18] was 18%.
